Data on six compounds can be found in patent US4105761A, “Anabolisant-androgenic compounds” (Roussel Uclaf, priority 1974, dated 1978).

Data set [1] concerns castrated male rats (levator ani, seminal vesicules, prostate). Nature of the data set: Anabolisant-androgenic activity, Hershberger technique slightly modified (castrated rats, oral). The format is in vivo, rat. Particulars: for Levator ani weight / Prostate weight / Seminal vesicules weight: oral, 10 days. The procedure: This test was effected using the technique of Hershberger [Proc. Soc. Exp. Biol. Med., Vol. 83 (1953), p. 175] slightly modified and groups of 5 male rats 19 to 21 days old were castrated and then were treated daily for 10 days by oral administration of the test product in a solution containing 0.5 ml of olive oil and 0.5 ml of water containing 0.25% of carboxymethylcellulose. The animals were killed 24 hours after the last treatment and the prostate and seminal vesicules were removed and fixed for 24 hours in a solution of 10% formol in physiological serum. They were then dissected and weighed and the levator ani was removed and weighed in a fresh state. The increase in the weight of the genital organs indicate the anabolisant-androgenic activity of 17β-n-amyloxy-Δ^4,9,11 -estratriene-3-one and the results are reported in Table I and compared to the results of other trienic steroids.

In the next data set the test system is hepatic cells. Nature of the data set: Hepatonocivity study (rabbit, oral, 4 consecutive days). The data set is classed as in vivo. The procedure: 17β-n-amyloxy-Δ^4,9,11 -estratriene-3-one was orally administered for 4 consecutive days to a rabbit at a dose of 10 mg/kg and the animal was killed on the 5th day. […] (BSP).
[2] abbreviates: 10 mg/kg orally, 4 consecutive days.

In data set [1] (daily dose 20 μg/rat), `C=C(C)CO[C@H]1CC[C@H]2[C@@H]3CCC4=CC(=O)CCC4=C3C=C[C@]12C` [17β-(2'-methyl)allyloxy-Δ^4,9,11 estratriene 3-one] gave a Levator ani weight of 29.0 mg, a Prostate weight of 34.1 mg and a Seminal vesicules weight of 17.0 mg. In data set [1] (daily dose 100 μg/rat), this compound returned a Levator ani weight of 23.5 mg, a Prostate weight of 39.0 mg and a Seminal vesicules weight of 16.7 mg. In data set [1] (daily dose 500 μg/rat), this compound showed a Levator ani weight of 37.5 mg, a Prostate weight of 66.2 mg and a Seminal vesicules weight of 52.3 mg.
In data set [1] (daily dose 10 μg/rat), `CC(C)=CCO[C@H]1CC[C@H]2[C@@H]3CCC4=CC(=O)CCC4=C3C=C[C@]12C` [17β-(3'-methyl)but-2'-enyloxy Δ^4,9,11-estratriene-3-one] showed a Levator ani weight of 28.7 mg, a Prostate weight of 12.8 mg and a Seminal vesicules weight of 8.2 mg. In data set [1] (daily dose 100 μg/rat), this compound returned a Levator ani weight of 49.2 mg, a Prostate weight of 39.0 mg and a Seminal vesicules weight of 36.7 mg.
In data set [1] (daily dose 10 μg/rat), `C[C@]12C=CC3=C4CCC(=O)C=C4CC[C@H]3[C@@H]1CC[C@@H]2OCC1CC1` [17β-(cyclopropyl)-methoxy-Δ^4,9,11-estratriene-3-one] showed a Levator ani weight of 20.7 mg, a Prostate weight of 18.4 mg and a Seminal vesicules weight of 9.9 mg. In data set [1] (daily dose 100 μg/rat), this compound had a Levator ani weight of 33.3 mg, a Prostate weight of 41.7 mg and a Seminal vesicules weight of 26.4 mg. In data set [1] (daily dose 1000 μg/rat), this compound gave a Levator ani weight of 49.2 mg, a Prostate weight of 88.7 mg and a Seminal vesicules weight of 97.1 mg.
For `CC(C)CO[C@H]1CC[C@H]2[C@@H]3CCC4=CC(=O)CCC4=C3C=C[C@]12C` [17β-isobutyloxy-Δ^4,9,11-estratriene-3-one], in data set [1] (daily dose 10 μg/rat), the Levator ani weight turned out to be 24.6 mg, the Prostate weight turned out to be 13.5 mg and the Seminal vesicules weight worked out at 9.2 mg. For the same compound, in data set [1] (daily dose 100 μg/rat), the Levator ani weight amounted to 41.9 mg, the Prostate weight is on record as 46.4 mg and the Seminal vesicules weight was 28.7 mg. Moreover, in data set [1] (daily dose 1000 μg/rat), the Levator ani weight was 44.0 mg, the Prostate weight was determined as 104.8 mg and the Seminal vesicules weight is on record as 116.0 mg.
Consider `CCCCCO[C@H]1CC[C@H]2[C@@H]3CCC4=CC(=O)CCC4=C3C=C[C@]12C` [17β-n-amyloxy-Δ^4,9,11-estratriene-3-one], for which the “tolerance by the hepatic cells” value in the data set on hepatic cells (5 mg/kg) was “well tolerated”. In addition, in the data set with hepatic cells (setting [2]), the “rate of oxalacetic transaminase (SGOT)” value is reported as “increase” and the “rate of retention of bromosulfonephtalein (BSP)” value is reported as “without having caused a change”. For the same compound, in data set [1] (administered orally, rats), the “anabolisant-androgenic activity compared to other Δ^4,9,11 -estratrienes” value is on record as “clearly much superior”. In data set [1] (daily dose 10 μg/rat), this compound yielded a Levator ani weight of 28.4 mg, a Prostate weight of 27.7 mg and a Seminal vesicules weight of 13.1 mg. Moreover, in data set [1] (daily dose 30 μg/rat), the Levator ani weight stood at 47.1 mg, the Prostate weight is 44.7 mg and the Seminal vesicules weight was determined as 23.5 mg. In data set [1] (daily dose 90 μg/rat), this compound showed a Levator ani weight of 53.1 mg, a Prostate weight of 79.0 mg and a Seminal vesicules weight of 64.0 mg.
In the case of `CCCO[C@H]1CC[C@H]2[C@@H]3CCC4=CC(=O)CCC4=C3C=C[C@]12C` [17β-n-propyloxy-Δ^4,9,11-estratriene 3-one], in data set [1] (daily dose 100 μg/rat), the Levator ani weight was found to be 25.3 mg, the Prostate weight came to 33.5 mg and the Seminal vesicules weight is on record as 14.9 mg. Also, in data set [1] (daily dose 1000 μg/rat), the Levator ani weight is recorded as 38.7 mg, the Prostate weight is 74.4 mg and the Seminal vesicules weight stood at 66.8 mg.
